Entries after “also recorded” stand apart in the source; their conditions may differ.
Columns and labels:
[1] = test system: α-L-iduronidase (IDUA) mRNA; test: IDUA mRNA expression in MPS I patient cells (normalized to GAPDH); assay type: cell-based, human; settings: 48 hours
Method: A cell culture experiment was performed in MPS-I patient-derived fibroblast cells. Cells were cultured overnight in a 384-well plate, at a concentration of 20,000 cells per well in advanced DMEM media (Life Technologies) supplemented with 15% FBS (Life technologies), 1× Glutamax (Life Technologies) and beta-mercaptoethanol (1:125000 dilution). The next day, cells were treated with the indicated compound with final concentrations including, but not limited to: 100 μ[…] and 0.12 μM depending on experiment. Treated cells were then incubated for 48 hours at 37° C., 5% CO2, 95% humidity. Cells were then washed with HBSS buffer, and 25 μM of the fluorogenic substrate 4-Methylumbelliferyl α-L-iduronide (free acid) (Santa Cruz Biotechnology) were added in the presence of 0.2M CHNaO2, 0.1% BSA, and 0.1% Triton X. After the addition of the 4-Methylumbelliferyl α-L-iduronide substrate, cells were incubated at 37° C. for 3 to 4 hours, placed at room temperature for 30 minutes to stabilize and alpha-L-iduronidase (IDUA) enzyme activity was measured using the EnVision Multilabel Plate Reader (Perkin Elmer, Inc.). Compounds were purchased from Tocris, Cayman Chemicals or Sigma-Aldrich. Tests were subsequently conducted to determine whether the increase in activity could in-part be attributed to increases in gene expression. […] Resveratrol and Piceatannol were added to patient cells for 48 hours, in the same conditions mentioned above.

[2] = test system: alpha-L-iduronidase; test: alpha-L-iduronidase activity in plasma of treated mice; assay type: in vivo; settings: for alpha-L-iduronidase activity in plasma: 25 mg/kg or 50 mg/kg daily, 1 month; for α-iduronidase activity in plasma at 50 mg/kg/day: one month
[3] = test system: alpha-L-iduronidase (IDUA); test: IDUA enzyme activity in MPS-I patient-derived fibroblast cells (4-Methylumbelliferyl α-L-iduronide substrate); assay type: cell-based, human; settings: compound 48 hours, vs buffer only control, FIG. 1
Method: A cell culture experiment was performed in MPS-I patient-derived fibroblast cells. Cells were cultured overnight in a 384-well plate, at a concentration of 20,000 cells per well in advanced DMEM media (Life Technologies) supplemented with 15% FBS (Life technologies), 1× Glutamax (Life Technologies) and beta-mercaptoethanol (1:125000 dilution). The next day, cells were treated with the indicated compound with final concentrations including, but not limited to: 100 μM, 30 μM, 10 μM, 3.3 μM, 1.1 μM, 0.37 μM and 0.12 μM depending on experiment. Treated cells were then incubated for 48 hours at 37° C., 5% CO2, 95% humidity. Cells were then washed with HBSS buffer, and 25 μM of the fluorogenic substrate 4-Methylumbelliferyl α-L-iduronide (free acid) (Santa Cruz Biotechnology) were added in the presence of 0.2M CHNaO2, 0.1% BSA, and 0.1% Triton X. After the addition of the 4-Methylumbelliferyl α-L-iduronide substrate, cells were incubated at 37° C. for 3 to 4 hours, placed at room temperature for 30 minutes to stabilize and alpha-L-iduronidase (IDUA) enzyme activity was measured using the EnVision Multilabel Plate Reader (Perkin Elmer, Inc.). Compounds were purchased from Tocris, Cayman Chemicals or Sigma-Aldrich.

Row | SMILES | IDUA mRNA level ([1]; FIG. 2, listed as Piceatannol) | IDUA mRNA level ([1]; FIG. 2, listed as piceatannol) | alpha-L-iduronidase activity in plasma ([2]; FIG. 3) | alpha-L-iduronidase activity in plasma ([2]; FIG. 3, listed as piceatannol) | α-iduronidase activity in plasma at 50 mg/kg/day ([2]; FIG. 3) | IDUA enzyme activity [3] | IDUA mRNA level ([1]; FIG. 2, listed as resveratrol) | alpha-L-iduronidase activity in plasma ([2]; FIG. 3, listed as resveratrol)
1 | Oc1cc(O)cc(/C=C/c2ccc(O)c(O)c2)c1 [CTI-101, piceatannol] | increase in IDUA mRNA expression | increased the mRNA level | Increases in alpha-L-iduronidase activity | elevation of α-iduronidase activity | substantial boosts in enzyme activity | – | – | –
2 | Oc1ccc(/C=C/c2cc(O)cc(O)c2)cc1 [CTI-102, 3,5,4′-trihydroxystilbene] | – | – | Increases in alpha-L-iduronidase activity | – | substantial boosts in enzyme activity | increase in IDUA activity | increased the mRNA level; also recorded: increase in IDUA mRNA expression | elevation of α-iduronidase activity
